Reference: patent publication US9133207B2, “Tetrandrine derivatives with substituted 5-carbon, preparation method and use thereof” (Hangzhou Bensheng Pharmaceutical Co., Ltd., priority 2011, dated 2015)
Values after ≈ are worked out from the molar mass of the structure shown. One block for each molecule: values may come before it.

Tests used:
[1] = tested on: human non-small cell lung cancer cell line A549 transplanted tumor; test: Experiment 8-2: transplanted tumor of human lung cancer in nude mice; assay type: in vivo, BALB/c nude mice; settings: 50 mg/kg intragastric, 3 times a day, 10 days, Day 29, M±SD
Excerpt: (§1) Cell lines: human non-small cell lung cancer cell line A549, from China Center for Type Culture Collection (CCTCC);
(§2) The administrations are successive for 10 days.

[2] = Experiment 8-2: body weight of nude mice, preliminary toxicity; settings: M±SD
Description: Animal: BALB/c nude mice, 8 weeks, female, purchased from Shanghai Laboratory Animal Center of Chinese Academy of Sciences, China.
The mice are administered from the third day after the inoculation. Each mouse is intragastrically administered in 0.4 ml each time and 3 times a day, at 8:00, 14:00 and 20:00, with 6-hour intervals. The administrations are successive for 10 days. The day before administration is deemed as Day 0 and the body weight and tumor size are determined every 5 days to produce a dynamic plot on body weight and tumor growth. On Day 29, the mice are dissected and the tumors are taken out and weighted. The tumor inhibition rate (%) is calculated after the effect of the medicament based on the tumor inhibition rate of the control group being zero.
The values determined are presented as mean±standard error (M±SD).

[3] = tested on: SK-OV-3 (ovarian cancer cell); test: Solid tumor cell growth inhibition, MTT, 72 h (Example 7); assay type: cell-based; settings: Homo sapiens
In short: (§3)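 4000 cells/well in DMEM high glucose with 10% FBS pre-cultured 24 h at 37 °C, 5% CO2, then exposed to tetrandrine derivatives at various concentrations for 72 h. Viability measured by MTT, expressed as % of untreated control.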

[4] = tested on: Hela (human cervical cancer cell); test: as above; assay type: cell-based; settings: Homo sapiens; 72 h, MTT, Hela
In short: as §3

[5] = tested on: U87 MG (malignant glioma cell); test: as above; assay type: cell-based; settings: Homo sapiens, U-87 MG
In short: as §3

[6] = tested on: MGC 803 (human gastric cancer cell); test: as above; assay type: cell-based; settings: Homo sapiens
In short: as §3

[7] = tested on: CNE (nasopharyngeal carcinoma cell); test: as above; assay type: cell-based; settings: Homo sapiens
In short: as §3

[8] = tested on: Becap37 (human breast cancer cell); test: as above; assay type: cell-based; settings: Homo sapiens; 72 h, MTT, Becap-37
In short: as §3

[9] = tested on: Huh7 (human liver cancer cell); test: as above; assay type: cell-based; settings: Homo sapiens; 72 h, MTT, Huh-7
In short: as §3

[10] = tested on: RKO (human colon adenocarcinoma cell); test: as above; assay type: cell-based; settings: Homo sapiens; 72 h, MTT, RKO
In short: as §3

A549 (human lung cancer) = test: as above; assay type: cell-based; settings: Homo sapiens; 72 h, MTT, A549
In short: as §3

[11] = tested on: human breast cancer multidrug resistant lines MCF-7/ADR; settings: 2.5 μmol/L tetrandrine; cited from earlier work
[12] = tested on: RPMI8226 (multiple myeloma); test: Multiple myeloma cell growth inhibition, MTT, 72 h (Example 6); assay type: cell-based, human; settings: Homo sapiens, RPMI-8226; 72 h, MTT, RPMI8226
In short: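 RPMI8226 cells (6000 per well) in RPMI 1640 with 10% FBS were exposed to a range of tetrandrine derivative concentrations for 72 h at 37 °C under 5% CO2. Viable cell concentration was then measured by MTT.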

[13] = tested on: K562/adr (drug-resistant, chronic myeloid leukemia, CML); test: Leukemia cell growth inhibition, MTT, 72 h (Example 5); assay type: cell-based, human; settings: Homo sapiens, K562/Adr; 72 h, MTT
In short: (§4)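 Viable cell concentration is read by the MTT method after 72 hours of exposure. Cells (6000 per well, RPMI 1640 with 10% fetal bovine serum) receive the derivatives at a range of concentrations and are kept at 37° C under 5% CO2.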

[14] = tested on: H9 (acute lymphoblastic leukemia, ALL); test: as above; assay type: cell-based, human; settings: Homo sapiens; 72 h, MTT
In short: as §4

[15] = tested on: Jurkat (acute lymphoblastic leukemia, ALL); test: as above; assay type: cell-based, human; settings: Homo sapiens, Jurkat; 72 h, MTT
In short: as §4

[16] = tested on: Kasumi-1 (acute myeloid leukemia M2 type, AML-M2); test: as above; assay type: cell-based, human; settings: Homo sapiens, Kasumi 1
In short: as §4

[17] = tested on: NB4 (acute promyelocytic leukemia, AML); test: as above; assay type: cell-based, human; settings: Homo sapiens; 72 h, MTT
In short: as §4

[18] = tested on: PANC-1 (pancreatic cancer); test: Solid tumor cell growth inhibition, MTT, 72 h (Example 7); assay type: cell-based, human; settings: Homo sapiens; 72 h, MTT, PANC-1
In short: as §3

[19] = tested on: CaES-17 (esophageal cancer cell); test: as above; assay type: cell-based, human; settings: Homo sapiens, CaEs17; 72 h, MTT, CAES-17
In short: as §3

[20] = tested on: Hep-2 (laryngeal carcinoma); test: as above; assay type: cell-based, human; settings: Homo sapiens; 72 h, MTT, Hep 2
In short: as §3

PC-3 (prostate cancer) = test: as above; assay type: cell-based, human; settings: Homo sapiens; 72 h, MTT, PC-3
In short: as §3

MG63 (osteosarcoma) = test: as above; assay type: cell-based, human; settings: Homo sapiens; 72 h, MTT, MG-63
In short: as §3

[21] = Experiment 8-1: body weight of nude mice, preliminary toxicity; assay type: in vivo, BALB/c nude mice; settings: M±SD
Description: (§5) BS-TE-403 and BS-TE-333 (the present invention), and tetrandrine TTD from Jiangxi Jinfurong Pharmaceutical Co., Ltd. All compounds are administered at the dosage of 50 mg/kg weight each time.
(§6) The experiments are divided into 4 groups: negative control group (solvent group), positive control group (lead compound TTD group), BS-TE-403 group and BS-TE-333 group.
as §2

[22] = tested on: human non-small cell lung cancer cell line A549 transplanted tumor; test: Experiment 8-1: transplanted tumor of human lung cancer in nude mice; assay type: in vivo, BALB/c nude mice; settings: 50 mg/kg intragastric, 3 times a day, 10 days
Description: as §1, §5
Under sterile conditions, the above tumor cells in the logarithmic growth phase are collected and injected by subcutaneous injection in an amount of 5×10^6/0.2 ml/nude mice (cell viability>95%) into the right subaxillary of the nude mice, thus establishing a transplated tumor model of human non-small cell lung cancer in nude mice.
as §6, §2

[23] = tested on: drug-resistant lung cancer cell GLC-82/ADR; settings: while adriamycin is used, without tetrandrine; cited from earlier work
[24] = 50 mg/kg intragastric, 3 times a day, 10 days, final body weight
[25] = nude mice body weight before administration

Compound: COc1cc2ncnc(Nc3ccc(F)c(Cl)c3)c2cc1OCCCN1CCOCC1 [Jef, gefitinib, reference compound]
Mass of tumor [1]: 883 ± 273.32 mg
Weight (g) Final [2, 24]: 21.8 ± 0.99 g
Weight (g) Initial [2, 25]: 22.1 ± 0.17 g

IC50 [3]: 9.04 µg/mL (≈ 14.5 µM)
IC90 [3]: > 16 µg/mL
IC50 [4]: 4.05 µg/mL (≈ 6.5 µM)
IC90 [4]: 9.24 µg/mL (≈ 14.8 µM)
IC50 [5]: 0.66 µg/mL (≈ 1.06 µM)
IC90 [5]: 3.58 µg/mL (≈ 5.75 µM)
IC50 [6]: 1.97 µg/mL (≈ 3.16 µM)
IC90 [6]: 7.41 µg/mL (≈ 11.9 µM)
IC50 [7]: 3.3 µg/mL (≈ 5.3 µM)
IC90 [7]: 6.2 µg/mL (≈ 9.96 µM)
IC50 [8]: 6.9 µg/mL (≈ 11.1 µM)
IC90 [8]: 15 µg/mL (≈ 24.1 µM)
IC50 [9]: 5.05 µg/mL (≈ 8.11 µM)
IC90 [9]: 7.81 µg/mL (≈ 12.5 µM)
IC50 [10]: 2.72 µg/mL (≈ 4.37 µM)
IC90 [10]: 6.3 µg/mL (≈ 10.1 µM)
IC50 (A549 (human lung cancer)): 2.9 µg/mL (≈ 4.66 µM)
IC90 (A549 (human lung cancer)): 12.5 µg/mL (≈ 20.1 µM)
IC50 [12]: 0.37 µg/mL (≈ 0.594 µM)
IC90 [12]: 2.54 µg/mL (≈ 4.08 µM)
IC50 [13]: 0.44 µg/mL (≈ 0.707 µM)
IC90 [13]: 2.14 µg/mL (≈ 3.44 µM)
IC50 [14]: 2.69 µg/mL (≈ 4.32 µM)
IC90 [14]: 6.4 µg/mL (≈ 10.3 µM)
IC50 [15]: 2.09 µg/mL (≈ 3.36 µM)
IC90 [15]: 9.85 µg/mL (≈ 15.8 µM)
IC50 [16]: 1.69 µg/mL (≈ 2.71 µM)
IC90 [16]: 8.24 µg/mL (≈ 13.2 µM)
IC50 [17]: 1.6 µg/mL (≈ 2.57 µM)
IC90 [17]: 4.1 µg/mL (≈ 6.58 µM)
IC50 [18]: 3.16 µg/mL (≈ 5.07 µM)
IC90 [18]: 7.02 µg/mL (≈ 11.3 µM)
IC50 [19]: 8.34 µg/mL (≈ 13.4 µM)
IC90 [19]: > 16 µg/mL
IC50 [20]: 3.88 µg/mL (≈ 6.23 µM)
IC90 [20]: 11.9 µg/mL (≈ 19 µM)
IC50 (PC-3 (prostate cancer)): 6.01 µg/mL (≈ 9.65 µM)
IC90 (PC-3 (prostate cancer)): 10.8 µg/mL (≈ 17.3 µM)
IC50 (MG63 (osteosarcoma)): 1.9 µg/mL (≈ 3.05 µM)
IC90 (MG63 (osteosarcoma)): 3.7 µg/mL (≈ 5.94 µM)
Compound: COc1ccc2cc1Oc1ccc(cc1)C[C@H]1c3cc(c(OC)cc3CCN1C)Oc1c(OC)c(OC)cc3c1[C@H](C2)N(C)CC3 [TTD, 6,6′,7,12-tetramethoxy-2,2′dimethylberbamine, reference compound]
increase of adriamycin cytotoxicity on drug-resistant tumors [11]: 20.4 times
Weight (g) Final [21, 24]: 19.10 ± 2.02 g
Weight (g) Initial [21, 25]: 22.40 ± 0.26 g
Mass of tumor ([22]; Day 27, M±SD): 799.00 ± 349.09 mg
Tumor Inhibition rate (%) ([22]; Day 27, control = zero): 13.95%

Compound: COc1cccc2c1C(=O)c1c(O)c3c(c(O)c1C2=O)C[C@@](O)(C(=O)CO)C[C@@H]3O[C@H]1C[C@H](N)[C@H](O)[C@H](C)O1 [adriamycin]
drug-resistance index [23]: 5.43
